From patent US8557796B2, “Substituted 1-oxa-2,8-diaza-spiro [4,5] dec-2-ene derivatives and related treatment methods” (Gruenenthal GmbH, priority 2001, dated 2013) come the findings set out here.

The inhibition is the change of the read-out against control, counted positive when it falls.

The target of this assay is T1, NA transporter (Rattus norvegicus, UniProt Q9WTR4).
T1 construct: synaptosomes from rat brain regions were freshly isolated; from tissue; host or cells: P2 synaptosome fraction from hypothalamus of male rat brain
T1 sequence (Q9WTR4 1-597): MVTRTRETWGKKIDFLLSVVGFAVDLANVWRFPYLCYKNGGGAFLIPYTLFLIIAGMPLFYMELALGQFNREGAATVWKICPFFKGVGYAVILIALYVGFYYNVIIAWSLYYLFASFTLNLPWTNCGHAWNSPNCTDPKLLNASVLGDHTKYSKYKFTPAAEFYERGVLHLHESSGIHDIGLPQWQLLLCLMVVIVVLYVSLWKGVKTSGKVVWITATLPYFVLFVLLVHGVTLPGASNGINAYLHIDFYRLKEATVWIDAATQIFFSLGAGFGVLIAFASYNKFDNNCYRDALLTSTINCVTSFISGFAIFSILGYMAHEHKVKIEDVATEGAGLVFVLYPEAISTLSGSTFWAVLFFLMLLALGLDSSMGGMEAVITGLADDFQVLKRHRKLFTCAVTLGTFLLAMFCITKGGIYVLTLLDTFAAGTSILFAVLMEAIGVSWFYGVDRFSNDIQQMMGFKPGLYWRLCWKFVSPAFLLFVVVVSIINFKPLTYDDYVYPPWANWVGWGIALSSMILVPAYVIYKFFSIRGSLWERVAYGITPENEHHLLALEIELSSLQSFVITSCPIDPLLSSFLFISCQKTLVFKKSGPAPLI
Briefly: Noradrenalin uptake inhibition (NA-uptake) in synaptosomes. In kind it is biochemical. The settings on record: rat hypothalamus synaptosomes. The source says: Tests on Noradrenalin Uptake Inhibition (NA-Uptake Inhibition)
In order to be able to carry out these in vitro studies, synaptosomes from rat brain regions were freshly isolated.
Compound `Cc1oc(C(C)(C)C)cc1C(=O)N1CCC2(CC1)CC(C(=O)NCC(C)C)=NO2` [Example 105, 8-(5-tert-butyl-2-methyl-furan-3-carbonyl)-1-oxa-2,8-diaza-spiro[4,5]dec-2-ene-3-carboxylic acid isobutyl-amide] gave an inhibition at 10 µM of 53%. Regarding `O=C(NCc1cccs1)C1=NOC2(CCN(C(=O)C=Cc3ccccc3)CC2)C1` [Example 106], the “NA-uptake, 10 μM, % inhibition” value stood at 47%.

As for `O=C(NCC1CC1)C1=NOC2(CCN(C(=O)c3ccc(C(F)(F)F)cc3)CC2)C1` [Example 107, 8-(4-trifluoromethyl-benzoyl)-1-oxa-2,8-diaza-spiro[4,5]dec-2-ene-3-carboxylic acid cyclopropylmethyl-amide], 10 µM produced 42% inhibition. Turning to `O=C(NCC1CC1)C1=NOC2(CCN(C(=O)c3ccc(SC(F)(F)F)cc3)CC2)C1` [Example 108, 8-(4-trifluoromethylsulphanyl-benzoyl)-1-oxa-2,8-diaza-spiro[4,5]dec-2-ene-3-carboxylic acid cyclopropylmethyl-amide], at 10 µM the inhibition was 42%. `O=C(NCC1CC1)C1=NOC2(CCN(C(=O)c3ccc(C(F)(F)F)c(F)c3)CC2)C1` [Example 110, 8-(3-fluoro-4-trifluoromethyl-benzoyl)-1-oxa-2,8-diaza-spiro[4,5]dec-2-ene-3-carboxylic acid cyclopropylmethyl-amide] came in with an inhibition at 10 µM of 45%. On to `CCSCCNC(=O)C1=NOC2(CCN(S(=O)(=O)CC34CCC(CC3=O)C4(C)C)CC2)C1` (centres unmarked) [Example 111, 8-(7,7-dimethyl-2-oxo-bicyclo[2.2.1]hept-1-ylmethane-sulphonyl)-1-oxa-2,8-diaza-spiro[4,5]dec-2-ene-3-carboxylic acid (2-ethylsulphanyl-ethyl)-amide], for which at 10 µM the inhibition was 40%. Turning to `O=C(NCC1CCCO1)C1=NOC2(CCN(C(=O)c3ccc(F)cc3F)CC2)C1` (centres unmarked) [Example 112], the “NA-uptake, 10 μM, % inhibition” value is recorded as 45%. The compound `COC(=O)CCC(=O)N1CCC2(CC1)CC(C(=O)NCc1cccs1)=NO2` [Example 114, 4-oxo-4-{3-[(thiophen-2-ylmethyl)-carbamoyl]-1-oxa-2,8-diaza-spiro[4,5]dec-2-ene-8-yl}-butyric acid methyl ester] came in with an inhibition at 10 µM of 42%. `CCSc1ncccc1C(=O)N1CCC2(CC1)CC(C(=O)NCc1ccccc1)=NO2` [Example 115, 8-(2-ethylsulphanyl-pyridine-3-carbonyl)-1-oxa-2,8-diaza-spiro[4,5]dec-2-ene-3-carboxylic acid benzylamide] returned an inhibition at 10 µM of 55%. Consider `CCOC(=O)CCNC(=O)C1=NOC2(CCN(S(=O)(=O)c3ccccc3Cl)CC2)C1` [Example 116, 3-{[8-(2-chloro-benzenesulphonyl)-1-oxa-2,8-diaza-spiro[4,5]dec-2-ene-3-carbonyl]-amino}-propionic acid ethyl ester], for which at 10 µM the inhibition was 60%. `O=C(NCC1CC1)C1=NOC2(CCN(C(=O)c3ccc(OC(F)(F)F)cc3)CC2)C1` [Example 117, 8-(4-trifluoromethoxy-benzoyl)-1-oxa-2,8-diaza-spiro[4,5]dec-2-ene-3-carboxylic acid cyclopropylmethyl-amide]: the inhibition at 10 µM worked out at 46%. In the case of `O=C(NCC1CC1)C1=NOC2(CCN(C(=O)CCCOc3ccccc3)CC2)C1` [Example 118, 8-(4-phenoxy-butyryl)-1-oxa-2,8-diaza-spiro[4,5]dec-2-ene-3-carboxylic acid cyclopropylmethyl-amide], the inhibition at 10 µM was found to be 46%. As for `O=C(C1=NOC2(CCN(S(=O)(=O)c3cccc(C(F)(F)F)c3)CC2)C1)N1CCN(c2cc(C(F)(F)F)ccn2)CC1` [Example 119], the “NA-uptake, 10 μM, % inhibition” value worked out at 43%.

For `O=C(NCC1CC1)C1=NOC2(CCN(C(=O)c3cc(C(F)(F)F)ccc3Cl)CC2)C1` [Example 120, 8-(2-chloro-5-trifluoromethyl-benzoyl)-1-oxa-2,8-diaza-spiro(4,5]dec-2-ene-3-carboxylic acid cyclopropylmethyl-amide], at 10 µM the inhibition was 40%.
